Format in all cases: cell-based
Assay [1] concerns HEC-59 endometrial cancer cells. In words: Percent inhibition of cell growth, ZN-c3, LB-100 or ZN-c3+LB-100 (cell titer glow). The settings on record: HEC-59 (PPP2R1A wild-type), 72 hours; ZN-c3 400 nM, LB-100 1 μM. How it is done: FIG. 18 depicts the percent inhibition of cell growth in HEC-59 endometrial cancer cells after treatment with ZN-c3 alone, the PP2A catalytic inhibitor LB-100 alone, or the combination of ZN-c3+LB-100. HEC-59 cell line is PPP2R1A wild-type. […] Percent inhibition is calculated using cell titer glow analysis.
(§1) Various cancer cell lines were treated with ZN-c3 alone, the PP2A catalytic inhibitor LB-100 alone, or the combination of ZN-c3+LB-100. As in Example 1 and Example 2, the treatment period was 72 hours and percent inhibition was calculated using cell titer glow analysis.
The endometrial cancer cell line HEC-59 was assessed for sensitivity to ZN-c3 alone, LB-100 alone, or the combination of ZN-c3+LB-100 (FIG. 18).
Background: ATP-based viability assays read luminescence as a measure of living cells.

The test system of assay [2] is HEC1B endometrial cancer cells. In words: Percent inhibition of cell growth, ZN-c3, LB-100 or ZN-c3+LB-100 after siCTRL or siPPP2R1A (cell titer glow). The settings on record: Homo sapiens, HEC-1B, 72 h, read-out: percent inhibition of cell growth. As for the experimental part: FIG. 21 depicts the percent inhibition of cell growth in HEC1B endometrial cancer cells after treatment with ZN-c3 alone, the PP2A catalytic inhibitor LB-100 alone, or the combination of ZN-c3+LB-100 after siRNA mediated knockdown of PPP2R1A. […] Percent inhibition is calculated using cell titer glow analysis.
(§2) Following observations that both knockdown and knockout of PPP2R1A could sensitize cancer cells to Zn-C3, the effects of pharmacological inhibition of PPP2R1A with the catalytic inhibitor LB-100 were evaluated. Various cancer cell lines were treated with ZN-c3 alone, the PP2A catalytic inhibitor LB-100 alone, or the combination of ZN-c3+LB-100. As in Example 1 and Example 2, the treatment period was 72 hours and percent inhibition was calculated using cell titer glow analysis.
The endometrial cancer cell line HEC1B was also assessed for sensitivity to ZN-c3 alone, LB-100 alone, or the combination of ZN-c3+LB-100 following treatment with siCTRL or siPPP2R1A (FIG. 21).

Assay [3] relates to OV17R ovarian cancer cells. The assay can be described thus: Percent inhibition of cell growth, ZN-c3, LB-100 or ZN-c3+LB-100 (cell titer glow). The note with it: 72 h, read-out: percent inhibition of cell growth. How it is done:
FIG. 19 depicts the percent inhibition of cell growth in OV17R ovarian cancer cells after treatment with ZN-c3 alone, the PP2A catalytic inhibitor LB-100 alone, or the combination of ZN-c3+LB-100. OV17R has the PPP2R1A missense mutation S256F. Percent inhibition is calculated using cell titer glow analysis.
as §2
The ovarian cancer cell line OV17R was assessed for sensitivity to ZN-c3 alone, LB-100 alone, or the combination of ZN-c3+LB-100 (FIG. 19).

The test system of assay [4] is HEC-59 endometrial cancer cells. The assay can be described thus: Percent inhibition of cell growth, ZN-c3, LB-100 or ZN-c3+LB-100 after siCTRL or siPPP2R1A (cell titer glow). The settings on record: 72 hours, ZN-c3 300 nM, LB-100 1 μM. As for the experimental part: FIG. 20 depicts the percent inhibition of cell growth in HEC-59 endometrial cancer cells after treatment with ZN-c3 alone, the PP2A catalytic inhibitor LB-100 alone, or the combination of ZN-c3+LB-100 after siRNA mediated knockdown of PPP2R1A. […] Percent inhibition is calculated using cell titer glow analysis.
as §1
The endometrial cancer cell line HEC-59 was assessed for sensitivity to ZN-c3 alone, LB-100 alone, or the combination of ZN-c3+LB-100 following treatment with siCTRL or siPPP2R1A (FIG. 20).

This note sets out measurements from patent US20250208149A1, “WEE1 COMPOUND FOR TREATING UTERINE SEROUS CARCINOMA” (Recurium IP Holdings, LLC, priority 2022, published 2025).

The term inhibition denotes the relative decrease from the control value, in per cent. Consider `CN1CCN(C(=O)C2C(C(=O)O)[C@H]3CC[C@@H]2O3)CC1` (some centres unmarked) [LB-100, reference compound], for which the “percent inhibition of cell growth” value is “approximately half of that value” in assay [1] and “approximately half of that value” in assay [4] (HEC-59, siCTRL). The inhibition at 1 µM in assay [2] is 25%; in assay [3], about 12%. Also, the “percent inhibition in siPPP2R1A treated cells compared to siCTRL treated cells” value in assay [4] (HEC-59, siPPP2R1A) is given as “only slightly enhanced”.
